Experimental data as given in PMC7334220, “Diamond Blackfan anemia is mediated by hyperactive Nemo-like kinase” (Nature Communications, 2020).
Like-named read-outs stand apart in the source and are kept apart here.

Experiments:
[1] = test system: RPS19-insufficient Lin-Kit+ progenitors from mouse embryonic (E14.5–E15.5) fetal livers; assay: c-Kit+ erythroid expansion rescue in murine RPS19-insufficient progenitors (Cell titer-Glo); type: cell-based; settings: for rescue of c-Kit+ erythroid expansion: 10 µM, murine RPS19-insufficient model, Fig. 1b; for EC50: Mus musculus, read-out: EC50 of improved erythroid growth
Protocol: Cells were plated at 2000 cell per well in 96-well plates in the presence or absence of doxycycline. Relative amounts of live cells were quantified by luciferase-based Cell titer-Glo® assay. b TGFβR1 inhibitors were assessed for their ability to increase cell expansion in RPS19-insuffiency. As a control, vehicle alone (no doxycycline) is represented at the far left while all other samples were treated with doxycycline to induce RPS19-insufficiency. c Kit^+ erythroid progenitors were grown in the absence of doxycycline and in the presence of 10 µM of indicated compound. In addition, cells were treated with 5 ng/ml of TGFβ1 for 5 days before being subjected to Cell titer-Glo® assay. d Differentiating cord blood CD34^+ progenitors were transduced with shRNA against luciferase or RPS19 and treated with inhibitors at working concentrations for TGFβ inhibition every three days. […] Cells were counted and CD235^+ erythroid (i and iii) and CD11b^+ myeloid cell (ii and iv) percentages were determined by flow cytometry. The number of erythroid or myeloid cells is expressed as a percentage of the number of that lineage with no cytokine or drug treatment. Bars represent means ± SD with individual data points overlaid. n = 3 independent experiments performed in triplicate. Statistics: two-tailed Student’s t test, significant *p < 0.05. Also see Supplementary Fig. 1. Erythroid expansion is depicted in red while myeloid is in purple. Source data are provided as a Source Data file.
(1 picture or pasted object on this page, not shown here)

NLK = target: T1, NLK (Homo sapiens, UniProt Q9UBE8); assay: NLK in vitro kinase assay (NLK, c-Myb, Raptor substrates); type: biochemical; settings: for inhibition of NLK-mediated phosphorylation of NLK substrates NLK, c-Myb and Raptor: added to activated NLK in vitro, Supplementary Fig. 1c
T1 construct: NLK, p38, or ALK5 for in vitro kinase assays were immunopurified from Kp53A1 cells; endogenous in cells; immunoprecipitated with anti-NLK (Abcam AB97642)
T1 sequence (Q9UBE8 1-527): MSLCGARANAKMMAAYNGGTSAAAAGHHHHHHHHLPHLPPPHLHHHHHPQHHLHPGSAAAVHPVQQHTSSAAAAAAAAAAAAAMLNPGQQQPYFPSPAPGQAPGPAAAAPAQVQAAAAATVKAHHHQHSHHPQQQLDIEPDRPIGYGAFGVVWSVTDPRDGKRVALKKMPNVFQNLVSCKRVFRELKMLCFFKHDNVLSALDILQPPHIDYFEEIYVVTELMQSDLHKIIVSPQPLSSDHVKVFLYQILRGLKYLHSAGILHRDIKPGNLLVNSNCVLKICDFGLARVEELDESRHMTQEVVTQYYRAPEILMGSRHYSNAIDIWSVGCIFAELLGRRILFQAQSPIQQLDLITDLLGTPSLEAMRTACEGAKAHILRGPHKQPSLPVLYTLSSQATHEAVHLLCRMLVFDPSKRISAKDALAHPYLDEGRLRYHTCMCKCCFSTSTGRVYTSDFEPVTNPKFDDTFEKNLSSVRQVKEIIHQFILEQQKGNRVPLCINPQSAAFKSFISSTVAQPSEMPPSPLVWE
Protocol: Equivalent protein was loaded between samples. b—blue Transduced progenitors were differentiated for 15 days and sorted for surface expression of CD235 + , CD41 + and CD11b + population NLK mRNA was assessed by qRT-PCR. c Control and shRPS19-transduced CB progenitors were differentiated for 10 days prior to separation into CD71^+ and CD71^- populations and assessed for pThr298-NLK phosphorylation by Western blot analysis. d—purple CB CD34 + progenitors were transduced with shRNA against luciferase (shLuc) or RPS19 (shRPS19) along with CFP-NLK and YFP-NLK and differentiated for 10 days. NLK dimerization was quantified by FRET. e—left panel NLK was immunoprecipitated from transduced differentiating CD71^+ and CD71^- populations after 10 days, and incubated in the presence of ATP, Mg^2+ and dephosphorylated NLK (i orange), c-Myb (ii—blue) and Raptor (iii—green) for 30 min at 37 °C. Phosphorylation was detected by a combination of anti^-phosphoserine-HRP and anti-phosphothreonine-HRP antibodies, or mouse anti-phosphoserine and anti-mouse-HRP antibodies. e—right panel For comparison, NLK in vitro kinase activity was assessed from CD235^+, CD41^+ and CD11b^+ populations enriched after identical treatments. f A panel of eight small molecule p38 inhibitors were titrated into in vitro kinase assays in the presence of activated NLK or p38 from stimulated Kp53A1 cells. The IC50 for NLK and p38 for each compound was calculated. The data are represented diagrammatically with IC50 values represented as vertical lines along a concentration gradient for NLK and p38. Kinase activity is represented as blue and the extent of inhibition is depicted in white. […] Bars represent means ± SD with individual data points overlaid. n = 3 independent experiments performed in triplicate.Statistics: two-tailed Student’s t test, significant *p < 0.05. Also see Supplementary Figs. 3 and 4. Source data are provided as a Source Data file. […] Inhibitors were added to cells at indicated concentrations with a final DMSO concentration of 0.5%. […] IC50 calculations were obtained using 8–9 concentrations of compound and generated using the IC50 Calculator software by AAT Bioquest®. NLK, p38, or ALK5 for in vitro kinase assays were immunopurified from Kp53A1 cells. NLK activation was induced by incubating cells at 32° for 24-48 h, p38 by stimulating with IL-3, IL-6, SCF, and Epo at the same concentrations used for differentiating erythroid progenitors.
For NLK kinase analysis, cultures were treated as indicated and lysed for 30 min at 4 °C in 750 μl of kinase lysis buffer (50 mM Tris [pH 7.4], 5 mM EDTA, 250 mM NaCl, 0.1% Triton X-100, 50 mM NaF, 0.1 trypsin inhibitor unit of aprotinin per ml, 50 μg of phenylmethylsulfonyl fluoride per ml, 100 μM sodium vanadate, 1 μg of leupeptin per ml). For TGFβR1 kinase analysis, cells were lysed in membrane kinase buffer (10 mM Tris-HCl (pH8.0), 140 mM NaCl, 300 mM KCl, 0.5% Triton X-100, and 0.5% sodium deoxycholate with complete protease inhibitor cocktail (Roche)). Extracts were clarified, and equivalent protein was incubated overnight at 4 °C with antibody (NLK: #AB97642; Abcam, TGFβR1: V22; Santa Cruz Biotechnology). Immune complexes were collected with Catch and Release® V2.0 Reversible Immunoprecipitation System and diluted in kinase buffer (25 mM Tris [pH 7.4], 10 mM MgCl2, 1 mM dithiothreitol). When cell numbers were limiting, NLK activity was amplified by adding 0.5 µg dephosphorylated NLK prior to performing kinase reaction. 50 μl of kinase buffer containing NLK or TGFβR1 sample and 5 μM ATP was incubated in the presence of biotinylated substrate (NLK, c-Myb, or Raptor for NLK and Smad2 or Smad3 for TGFβR1) immobilized on streptavidin-coated 96-well plates.

Row | IC50 (NLK; Supplementary Fig. 1e, read-out: IC50 against NLK) [nM] | SMILES | rescue of c-Kit+ erythroid expansion [1] | EC50 [1] [nM] | IC50 (NLK) [nM] | inhibition of NLK-mediated phosphorylation of NLK substrates NLK, c-Myb and Raptor (NLK) | SD208 concentration at which NLK activation was significantly inhibited in in vitro assays (NLK; rebuttal letter) | EC50 ([1]; murine RPS19-insufficient cells, Supplementary Fig. 1a) [nM]
1 | – | Fc1ccc(Cl)cc1-c1nc(Nc2ccncc2)c2nccnc2n1 [SD208] | significantly rescued | 700 | 435 | ~ 80% | below 0.1 uM | –
2 | 1070 | NC(=O)c1ccc(-c2nc(-c3ccc4c(c3)OCO4)c(-c3ccccn3)[nH]2)cc1 [SB431542] | significantly rescued | – | – | 55% | – | 5000
